Common to all, as to assay type: functional
One test concerns A549. Nature of the test: Growth inhibition of human A549/ATCC cells assessed as cell growth at 0.3 uM incubated for 48 hrs by sulforhodamine B assay relative to control. To be noted: A549, 48 h, read-out: Activity. On the technique in general: The SRB assay estimates cell density from bound dye.
A further test deals with CAKI-1. In words: Growth inhibition of human Caki1 cells assessed as cell growth at 30 uM incubated for 48 hrs by sulforhodamine B assay relative to control. To be noted: CAKI-1, 48 h, read-out: Activity.
For test [1], the system named is PC-3. Nature of the test: Growth inhibition of human PC3 cells assessed as cell growth at 0.003 uM incubated for 48 hrs by sulforhodamine B assay relative to control. The settings on record: PC-3, 48 h, read-out: Activity.
The next test concerns KM12. Nature of the test: Growth inhibition of human KM12 cells assessed as cell growth at 0.3 uM incubated for 48 hrs by sulforhodamine B assay relative to control. To be noted: KM12, 48 h, read-out: Activity.
For test [2], the system named is MOLT-4. Nature of the test: Growth inhibition of human MOLT4 cells assessed as cell growth at 0.03 uM incubated for 48 hrs by sulforhodamine B assay relative to control. The settings on record: MOLT-4, 48 h, read-out: Activity.
Test [3] relates to MDA-MB-435. Nature of the test: Growth inhibition of human MDA-MB-435 cells assessed as cell growth at 3 uM incubated for 48 hrs by sulforhodamine B assay relative to control. The settings on record: MDA-MB-435, 48 h, read-out: Activity.
Test [4] concerns HT-29. Nature of the test: Growth inhibition of human HT-29 cells assessed as cell growth at 30 uM incubated for 48 hrs by sulforhodamine B assay relative to control. To be noted: HT-29, 48 h, read-out: Activity.
Another test has as its system NCI-H522. Nature of the test: Growth inhibition of human NCI-H522 cells assessed as cell growth at 0.03 uM incubated for 48 hrs by sulforhodamine B assay relative to control. The settings on record: NCI-H522, 48 h, read-out: Activity.
The subject of test [5] is SK-MEL-5. In words: Growth inhibition of human SK-MEL-5 cells assessed as cell growth at 0.03 uM incubated for 48 hrs by sulforhodamine B assay relative to control. The settings on record: SK-MEL-5, 48 h, read-out: Activity.
In the next test the test system is TK-10. Nature of the test: Growth inhibition of human TK10 cells assessed as cell growth at 10 uM incubated for 48 hrs by sulforhodamine B assay relative to control. To be noted: TK-10, 48 h, read-out: Activity.
The subject of test [6] is DU-145. In words: Growth inhibition of human DU145 cells assessed as cell growth at 0.3 uM incubated for 48 hrs by sulforhodamine B assay relative to control. To be noted: DU-145, 48 h, read-out: Activity.
Another test has as its system SN12C. In words: Growth inhibition of human SN12C cells assessed as cell growth at 3 uM incubated for 48 hrs by sulforhodamine B assay relative to control. The settings on record: read-out: Activity.
The next test concerns T47D. In words: Growth inhibition of human T47D cells assessed as cell growth at 3 uM incubated for 48 hrs by sulforhodamine B assay relative to control. To be noted: read-out: Activity.
A further test deals with IGROV-1. Nature of the test: Growth inhibition of human IGROV1 cells assessed as cell growth at 30 uM incubated for 48 hrs by sulforhodamine B assay relative to control. To be noted: IGROV-1, 48 h, read-out: Activity.
A further test deals with NCI/ADR-RES. Nature of the test: Growth inhibition of human NCI/ADR-RES cells assessed as cell growth at 3 uM incubated for 48 hrs by sulforhodamine B assay relative to control. The settings on record: read-out: Activity.
The test system of test [7] is PC-3. In words: Growth inhibition of human PC3 cells assessed as cell growth at 0.03 uM incubated for 48 hrs by sulforhodamine B assay relative to control. To be noted: PC-3, 48 h, read-out: Activity.
Test [8] concerns HT-29. Nature of the test: Growth inhibition of human HT-29 cells assessed as cell growth at 100 uM incubated for 48 hrs by sulforhodamine B assay relative to control. To be noted: HT-29, 48 h, read-out: Activity.
Test [9] relates to MOLT-4. Nature of the test: Growth inhibition of human MOLT4 cells assessed as cell growth at 100 uM incubated for 48 hrs by sulforhodamine B assay relative to control. The settings on record: MOLT-4, 48 h, read-out: Activity.
A further test relates to 786-0. Nature of the test: Growth inhibition of human 786-0 cells assessed as cell growth at 0.01 uM incubated for 48 hrs by sulforhodamine B assay relative to control. The settings on record: 786-0, 48 h, read-out: Activity.
Test [10] concerns DU-145. Nature of the test: Growth inhibition of human DU145 cells assessed as cell growth at 100 uM incubated for 48 hrs by sulforhodamine B assay relative to control. To be noted: DU-145, 48 h, read-out: Activity.
The test system of test [11] is SR. In words: Growth inhibition of human SR cells assessed as cell growth at 0.01 uM incubated for 48 hrs by sulforhodamine B assay relative to control. The settings on record: read-out: Activity.
In another test the test system is MCF7. Nature of the test: Growth inhibition of human MCF7 cells assessed as cell growth at 0.1 uM incubated for 48 hrs by sulforhodamine B assay relative to control. The settings on record: MCF7, 48 h, read-out: Activity.
Test [12] concerns Hs-578T. In words: Growth inhibition of human Hs 578T cells assessed as cell growth at 10 uM incubated for 48 hrs by sulforhodamine B assay relative to control. The settings on record: read-out: Activity.
The test system of test [13] is SR. Nature of the test: Growth inhibition of human SR cells assessed as cell growth at 100 uM incubated for 48 hrs by sulforhodamine B assay relative to control. To be noted: read-out: Activity.
Test [14] relates to Hs-578T. In words: Growth inhibition of human Hs 578T cells assessed as cell growth at 100 uM incubated for 48 hrs by sulforhodamine B assay relative to control. To be noted: read-out: Activity.
Test [15] concerns SK-MEL-5. In words: Growth inhibition of human SK-MEL-5 cells assessed as cell growth at 10 uM incubated for 48 hrs by sulforhodamine B assay relative to control. The settings on record: SK-MEL-5, 48 h, read-out: Activity.
The test system of a further test is HOP-92. Nature of the test: Growth inhibition of human HOP92 cells assessed as cell growth at 100 uM incubated for 48 hrs by sulforhodamine B assay relative to control. The settings on record: HOP-92, 48 h, read-out: Activity.
Another test relates to OVCAR-4. In words: Growth inhibition of human OVCAR4 cells assessed as cell growth at 0.1 uM incubated for 48 hrs by sulforhodamine B assay relative to control. To be noted: OVCAR-4, 48 h, read-out: Activity.
The test system of the next test is SK-MEL-28. Nature of the test: Growth inhibition of human SK-MEL-28 cells assessed as cell growth at 0.01 uM incubated for 48 hrs by sulforhodamine B assay relative to control. To be noted: SK-MEL-28, 48 h, read-out: Activity.
The next test deals with OVCAR-5. Nature of the test: Growth inhibition of human OVCAR5 cells assessed as cell growth at 1 uM incubated for 48 hrs by sulforhodamine B assay relative to control. To be noted: OVCAR-5, 48 h, read-out: Activity.
Another test deals with SF-268. Nature of the test: Growth inhibition of human SF268 cells assessed as cell growth at 1 uM incubated for 48 hrs by sulforhodamine B assay relative to control. To be noted: SF-268, 48 h, read-out: Activity.
For the next test, the system named is SNB-19. Nature of the test: Growth inhibition of human SNB19 cells assessed as cell growth at 10 uM incubated for 48 hrs by sulforhodamine B assay relative to control. The settings on record: SNB-19, 48 h, read-out: Activity.
In another test the test system is A498. Nature of the test: Growth inhibition of human A498 cells assessed as cell growth at 100 uM incubated for 48 hrs by sulforhodamine B assay relative to control. The settings on record: A498, 48 h, read-out: Activity.
Test [16] deals with MDA-MB-435. Nature of the test: Growth inhibition of human MDA-MB-435 cells assessed as cell growth at 0.1 uM incubated for 48 hrs by sulforhodamine B assay relative to control. The settings on record: MDA-MB-435, 48 h, read-out: Activity.
For test [17], the system named is MOLT-4. Nature of the test: Growth inhibition of human MOLT4 cells assessed as cell growth at 0.1 uM incubated for 48 hrs by sulforhodamine B assay relative to control. The settings on record: MOLT-4, 48 h, read-out: Activity.

SMILES strings stand for the structures.

Take `Cc1nc2cc(O)c(O)cc2cc1Oc1ccc(NC(=O)Nc2ccc(Cl)c(Cl)c2)cc1`: the results for the growth at 0.3 µM in the test on A549, in the test on KM12 and with DU-145 [6] were 96%, 104% and 106%, respectively. Further, the growth at 30 µM was -2% in the test with CAKI-1, 13% with HT-29 [4] and 17% with IGROV-1. Further, the growth at 0.003 µM in the test with PC-3 [1] was determined as 104%. Besides, the growth at 0.03 µM in the test on MOLT-4 [2] was 111%; with NCI-H522 it was 95%; with SK-MEL-5 [5], 101%; in the test with PC-3 [7] it was 97%. The growth at 3 µM in the test on MDA-MB-435 [3] is 71%; with SN12C it was 92%; in the test with T47D, 100%; in the test with NCI/ADR-RES, 85%. In addition, the growth at 10 µM in the test with TK-10 stood at 85.3%.
Take `COc1cc2cc(Oc3ccc(NC(=O)Nc4ccc(Cl)c(C(F)(F)F)c4)cc3)c(C)nc2cc1OC`: the growth at 0.3 µM in the test with A549 was 89%; in the test on KM12, 96%; in the test with DU-145 [6], 95%. The growth at 30 µM in the test with CAKI-1 was -55%; in the test on HT-29 [4] it was -82%; with IGROV-1 it was -42%. The growth at 0.003 µM with PC-3 [1] was 95%. For the same molecule, the growth at 0.03 µM in the test on MOLT-4 [2] was found to be 96%; in the test on NCI-H522, 93%; with SK-MEL-5 [5], 92%; with PC-3 [7], 94%. Also, the growth at 3 µM was 9% in the test on MDA-MB-435 [3], 21% in the test with SN12C, 19% in the test on T47D and 8% in the test on NCI/ADR-RES.
For the molecule `COc1cc2cc(Oc3ccc(NC(=O)Nc4ccc(Cl)c(Cl)c4)cc3)c(C)nc2cc1OC`, the growth at 100 µM in the test with HT-29 [8] was -100%; in the test on MOLT-4 [9], -12%; in the test on DU-145 [10] it was -64%; in the test on SR [13] it was -48%; in the test with Hs-578T [14], -45%; with HOP-92, -100%. The growth at 100 µM with A498 was -56%. Further, the growth at 0.01 µM in the test on 786-0 was found to be 83%; in the test on SR [11], 107%; with SK-MEL-28, 101%. Moreover, the growth at 0.1 µM with MCF7 was 92%; with OVCAR-4, 87%; in the test with MDA-MB-435 [16], 92%; in the test on MOLT-4 [17], 109%. Also, the growth at 10 µM was -2% with Hs-578T [12], -9% in the test on SK-MEL-5 [15] and 25% with SNB-19. The growth at 1 µM with OVCAR-5 is 116%; in the test with SF-268 it was 110%.
As to `COc1cc2cc(Oc3ccc(NC(=O)Nc4cc(C(F)(F)F)cc(C(F)(F)F)c4)cc3)c(C)nc2cc1OC`, the growth at 100 µM was -90% with HT-29 [8]; -42% with MOLT-4 [9]; -96% in the test on DU-145 [10]; -19% in the test with SR [13]; -9% in the test on Hs-578T [14]; -58% in the test with HOP-92. Also, the growth at 100 µM in the test with A498 is -93%. For the same molecule, the growth at 0.01 µM came out at 89% in the test with 786-0, 92% in the test on SR [11] and 91% in the test with SK-MEL-28. Also, the growth at 0.1 µM is 92% in the test with MCF7, 83% with OVCAR-4, 98% in the test on MDA-MB-435 [16] and 104% in the test with MOLT-4 [17]. Moreover, the growth at 10 µM in the test with Hs-578T [12] is -19%; in the test with SK-MEL-5 [15] it was -79%; in the test with TK-10, 13.2%; in the test with SNB-19 it was -79%. The growth at 1 µM with OVCAR-5 turned out to be 93%; in the test on SF-268 it was 79%.
